In patent US12139486B2, “Octahydro fused azadecalin glucocorticoid receptor modulators” (Corcept Therapeutics, Inc., priority 2013, dated 2024) one finds Ki data, which are given here for twelve compounds.

SMILES strings stand for the structures.

One assay has as its target T1, human recombinant GR (Homo sapiens, UniProt P04150).
T1 construct: purchased PanVera P2812
T1 sequence (P04150 1-777): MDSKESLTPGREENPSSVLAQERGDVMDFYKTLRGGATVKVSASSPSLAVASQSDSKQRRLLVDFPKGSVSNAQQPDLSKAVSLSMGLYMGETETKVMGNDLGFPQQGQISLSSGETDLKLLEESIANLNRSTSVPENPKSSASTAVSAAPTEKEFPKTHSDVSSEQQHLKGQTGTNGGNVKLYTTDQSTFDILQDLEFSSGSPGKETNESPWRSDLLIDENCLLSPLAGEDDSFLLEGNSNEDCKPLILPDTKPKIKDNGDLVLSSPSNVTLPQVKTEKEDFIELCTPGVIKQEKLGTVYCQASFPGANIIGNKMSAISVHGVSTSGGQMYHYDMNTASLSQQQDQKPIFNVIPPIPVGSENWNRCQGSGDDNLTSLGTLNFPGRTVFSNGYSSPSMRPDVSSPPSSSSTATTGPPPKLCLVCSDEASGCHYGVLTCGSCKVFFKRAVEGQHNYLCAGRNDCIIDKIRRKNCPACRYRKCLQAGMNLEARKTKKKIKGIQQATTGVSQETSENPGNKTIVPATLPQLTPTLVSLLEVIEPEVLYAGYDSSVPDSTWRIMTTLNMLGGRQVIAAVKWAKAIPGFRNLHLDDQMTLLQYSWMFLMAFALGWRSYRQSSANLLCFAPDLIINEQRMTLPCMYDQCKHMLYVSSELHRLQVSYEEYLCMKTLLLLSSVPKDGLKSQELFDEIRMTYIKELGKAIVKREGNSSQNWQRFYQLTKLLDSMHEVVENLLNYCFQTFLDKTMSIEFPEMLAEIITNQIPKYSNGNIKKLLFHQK
Kind of assay: Human Glucocorticoid Receptor (GR) Fluorescence Polarisation (FP) Binding Assay. The settings on record: Ki from IC50 by ligand depletion correction; displacement of Fluorome GS Red. The procedure:
The following is a description of a FP assay for measuring compound inhibition of labelled glucocorticoid binding to the human recombinant GR.
The binding affinity of test compounds was determined using a FP binding assay using human recombinant GR (PanVera P2812) and a fluorescent labelled glucocorticoid ligand (Fluorome GS Red) (PanVera P2894). The presence of inhibitors prevents the formation of a GS Red/GR complex resulting in a decrease in the measured polarisation value. The change in polarisation value in the presence of test compounds is used to calculate the binding affinity of the compound for GR.
This assay was performed in 384 well, black, round-bottom, polypropylene micro titre plates in a final volume of 20 μl. The assay contained 5 μl 1 nM GR (final concentration), 5 μl 0.5 nM Fluorome GS Red (final concentration) in the presence of 10p test compounds. Positive control wells (high polarisation) receive, 10 μl 2% (v:v) DMSO vehicle (1% (v/v) final concentration)+5 μl 1 nM GR and 5 μl 0.5 nM Fluorome GS Red. […] Assay blank background wells (used for normalisation) receive 15 μl 1×GS screening buffer+5 μl GR.
For the IC50 determination (concentration of compound that displaces 50% of the bound GS Red), compounds were tested at eight different concentrations in duplicate in two independently performed experiments. Compounds were prepared as solubilised solids at 10 mM in DMSO. On the day of assay, an 8 point half-log serial dilution (55 μl DMSO+25 μl compound solution) was prepared. A 1:50 dilution (1 μl compound solution+49 μl 1×GR screening buffer) was prepared for each compound. The compounds were prepared at 2× final assay concentration.
The plates were mixed and incubated for 4 hour at room temperature. FP was measured using an Envision Excite plate reader with 535 nm excitation and 590 nm emission interference filters.
Milli-polarisation (mP) values were calculated using the below equation: mP=1000*(S−G*P)/(S+G*P) where S and P are assay blank background subtracted fluorescence units, G=G-factor (1.07).
Compound IC50 values were calculated by plotting a [compound] v. % inhibition curve and fitting the data to a 4-parameter logistic fit equation.
10×GR screening buffer (100 mM potassium phosphate pH 7.4, 200 mM Na2MoO4, 1 mM EDTA, 20% (v/v) DMSO). To prepare 1×GR screening buffer, combine 1 ml 10×GR screening buffer (PanVera P2814)+1 ml stabilising peptide (PanVera P2815)+7.95 ml 4° C. MQ water. Add 50p 1M DTT, vortex and place on ice until use.
On the technique in general: In fluorescence polarisation assays a small probe gives low polarisation when free and higher when bound to something large.

The target in another assay is T2, glucocorticoid receptor (Homo sapiens, UniProt P04150).
T2 construct: endogenous in cells; host or cells: HepG2
T2 sequence (P04150 1-777): T1 sequence (P04150 1-777)
Description: HepG2 Tyrosine Aminotransferase (TAT) Assay. The format is cell-based. The procedure: Glucocorticoid mediated activation of TAT occurs by transactivation of glucocorticoid response elements in the TAT promoter by glucocorticoid receptor-agonist complex.
HepG2 cells were cultured using MEME media supplemented with 10% (v/v) foetal bovine serum; 2 mM L-glutamine and 1% (v/v) NEAA at 37° C., 5%/95% (v/v) CO2/air.
Compounds were serially half log diluted in 100% (v/v) dimethylsulphoxide from a 10 mM stock.
HepG2 cells were then lysed with 30 μl of cell lysis buffer containing a protease inhibitor cocktail for 15 minutes at 4° C. […] After 2 hours incubation at 37° C. the reaction was terminated by the addition of 15 μl of 10 M aqueous potassium hydroxide solution, and the plates incubated for a further 30 minutes at 37° C.
[compound] and fitting the data to a 4 parameter logistic equation.

One may read the Ki as the equilibrium dissociation constant of an inhibitor or competing ligand from its target. On to `CCn1ncc(S(=O)(=O)N2CC[C@H]3Cc4c(cnn4-c4ccc(F)cc4)C[C@]3(C(=O)c3cc(C(F)(F)F)ccn3)C2)n1` [Example 2O, ((4aR,8aS)-6-((2-ethyl-2H-1,2,3-triazol-4-yl)sulfonyl)-1-(4-fluorophenyl)-4,4a,5,6,7,8,8a,9-octahydro-1H-pyrazolo[3,4-g]isoquinolin-4a-yl)(4-(trifluoromethyl)pyridin-2-yl)methanone], for which the results for the Ki on human recombinant GR and at glucocorticoid receptor were 0.5 to 1 nM and under 20 nM, respectively.

In the case of `Cn1cc(S(=O)(=O)N2CC[C@H]3Cc4c(cnn4-c4ccc(F)cc4)C[C@]3(C(=O)c3cc(C(F)(F)F)ccn3)C2)nn1` [Example 2P, ((4aR,8aS)-1-(4-fluorophenyl)-6-((1-methyl-1H-1,2,3-triazol-4-yl)sulfonyl)-4,4a,5,6,7,8,8a,9-octahydro-1H-pyrazolo[3,4-g]isoquinolin-4a-yl)(4-(trifluoromethyl)pyridin-2-yl)methanone], the results for the inhibition constant (Ki) on human recombinant GR and at glucocorticoid receptor were over 1 nM and 20 to 100 nM, respectively.

As for `O=C(c1ccccn1)[C@]12Cc3cnn(-c4ccc(F)cc4)c3C[C@@H]1CCN(S(=O)(=O)c1cccc(C(F)(F)F)n1)C2` [Example 2Q, ((4aR,8aS)-1-(4-fluorophenyl)-6-((6-(trifluoromethyl)pyridin-2-yl)sulfonyl)-4,4a,5,6,7,8,8a,9-octahydro-1H-pyrazolo[3,4-g]isoquinolin-4a-yl)(pyridin-2-yl)methanone], the Ki on human recombinant GR was 0.5 to 1 nM; on glucocorticoid receptor it was under 20 nM.

For `Cc1ccnc(C(=O)[C@]23Cc4cnn(-c5ccc(F)cc5)c4C[C@@H]2CCN(S(=O)(=O)c2cnn(C)n2)C3)c1` [Example 2R, ((4aR,8aS)-1-(4-fluorophenyl)-6-((2-methyl-2H-1,2,3-triazol-4-yl)sulfonyl)-4,4a,5,6,7,8,8a,9-octahydro-1H-pyrazolo[3,4-g]isoquinolin-4a-yl)(4-methylpyridin-2-yl)methanone], the Ki on human recombinant GR is under 0.5 nM; on glucocorticoid receptor it was under 20 nM.

Turning to `CCCn1ncc(S(=O)(=O)N2CC[C@H]3Cc4c(cnn4-c4ccc(F)cc4)C[C@]3(C(=O)c3cscn3)C2)n1` [Example 2S, ((4aR,8aS)-1-(4-fluorophenyl)-6-((2-propyl-2H-1,2,3-triazol-4-yl)sulfonyl)-4,4a,5,6,7,8,8a,9-octahydro-1H-pyrazolo[3,4-g]isoquinolin-4a-yl)(thiazol-4-yl)methanone], the Ki on human recombinant GR was under 0.5 nM; on glucocorticoid receptor it was 20 to 100 nM.

For the compound `N#Cc1cccc(S(=O)(=O)N2CC[C@H]3Cc4c(cnn4-c4ccc(F)cc4)C[C@]3(C(=O)c3ccccn3)C2)c1` [Example 2T, 3-(((4aR,8aS)-1-(4-fluorophenyl)-4a-picolinoyl-4a,5,7,8,8a,9-hexahydro-1H-pyrazolo[3,4-g]isoquinolin-6(4H)-yl)sulfonyl)benzonitrile], the results for the Ki at human recombinant GR and on glucocorticoid receptor were over 1 nM and 20 to 100 nM, respectively.

`O=C(c1ccccn1)[C@]12Cc3cnn(-c4ccc(F)cc4)c3C[C@@H]1CCN(S(=O)(=O)c1ccc(C(F)(F)F)c(F)c1)C2` [Example 2U, ((4aR,8aS)-6-((3-fluoro-4-(trifluoromethyl)phenyl)sulfonyl)-1-(4-fluorophenyl)-4,4a,5,6,7,8,8a,9-octahydro-1H-pyrazolo[3,4-g]isoquinolin-4a-yl)(pyridin-2-yl)methanone]: the results for the Ki on human recombinant GR and on glucocorticoid receptor were over 1 nM and 20 to 100 nM, respectively.

For the compound `CN1CCOc2cc(S(=O)(=O)N3CC[C@H]4Cc5c(cnn5-c5ccc(F)cc5)C[C@]4(C(=O)c4ccccn4)C3)cnc21` [Example 2V, ((4aR,8aS)-1-(4-fluorophenyl)-6-((4-methyl-3,4-dihydro-2H-pyrido[3,2-b][1,4]oxazin-7-yl)sulfonyl)-4,4a,5,6,7,8,8a,9-octahydro-1H-pyrazolo[3,4-g]isoquinolin-4a-yl)(pyridin-2-yl)methanone], the values for the Ki on human recombinant GR and at glucocorticoid receptor were over 1 nM and 20 to 100 nM, respectively.

As for `CCCn1nncc1S(=O)(=O)N1CC[C@H]2Cc3c(cnn3-c3ccc(F)cc3)C[C@]2(C(=O)c2nccs2)C1` [Example 2W, ((4aR,8aS)-1-(4-fluorophenyl)-6-((1-propyl-1H-1,2,3-triazol-5-yl)sulfonyl)-4,4a,5,6,7,8,8a,9-octahydro-1H-pyrazolo[3,4-g]isoquinolin-4a-yl)(thiazol-2-yl)methanone], the Ki is over 1 nM at human recombinant GR and over 100 nM at glucocorticoid receptor.

In the case of `Cn1nncc1S(=O)(=O)N1CC[C@H]2Cc3c(cnn3-c3ccc(F)cc3)C[C@]2(C(=O)c2cc(C(F)(F)F)ccn2)C1` [Example 2X, ((4aR,8aS)-1-(4-fluorophenyl)-6-((1-methyl-1H-1,2,3-triazol-5-yl)sulfonyl)-4,4a,5,6,7,8,8a,9-octahydro-1H-pyrazolo[3,4-g]isoquinolin-4a-yl)(4-(trifluoromethyl)pyridin-2-yl)methanone], the Ki is over 1 nM on human recombinant GR and over 100 nM at glucocorticoid receptor.

For `Cn1ncc(S(=O)(=O)N2CC[C@H]3Cc4c(cnn4-c4ccc(F)cc4)C[C@]3(C(=O)c3nccs3)C2)n1` [Example 2Y, ((4aR,8aS)-1-(4-fluorophenyl)-6-((2-methyl-2H-1,2,3-triazol-4-yl)sulfonyl)-4,4a,5,6,7,8,8a,9-octahydro-1H-pyrazolo[3,4-g]isoquinolin-4a-yl)(thiazol-2-yl)methanone], the Ki on human recombinant GR was over 1 nM; on glucocorticoid receptor, over 100 nM.

For `CC(C)n1ncc(S(=O)(=O)N2CC[C@H]3Cc4c(cnn4-c4ccc(F)cc4)C[C@]3(C(=O)c3nccs3)C2)n1` [Example 2Z, ((4aR,8aS)-1-(4-fluorophenyl)-6-((2-isopropyl-2H-1,2,3-triazol-4-yl)sulfonyl)-4,4a,5,6,7,8,8a,9-octahydro-1H-pyrazolo[3,4-g]isoquinolin-4a-yl)(thiazol-2-yl)methanone], the Ki was under 0.5 nM on human recombinant GR and 20 to 100 nM on glucocorticoid receptor.
